The values that follow come from patent US7109341B2, “Therapeutic amides” (Wayne State University, priority 2002, dated 2006).

Where “and” joins values, the source holds several entries; their conditions need not be identical. Identical values can stand only once. Like-named read-outs stand apart in the source and are kept apart here.

The subject of series [1] is Pancreatic Ductal Adenocarcinoma 03. The following applies: footnote, no dose given; cited from earlier work.
Series [2] concerns Mammary Adenocarcinoma 17/ADR. The series can be described thus: Evaluation against early stage Mammary Adenocarcinoma 17/ADR, C3H/He females (Table 3). The conditions noted are these: Cage 2; IV; 7.5 mg/kg/inj days 1, 7; total 15 mg/kg. The class given is in vivo.
Series [3] has as its system Pancreatic Ductal Adenocarcinoma 03. Nature of the series: Evaluation against early stage Pancreatic Ductal Adenocarcinoma 03, IP route, C57 females (Table 9). The class given is in vivo. As for the experimental part: The IP route was used for two reasons. […] This is approximately 40% of the dose given IV with the racemic mix (60 mg/kg, see Table 7).
Series [4] in a line: Water solubility noted on drug preparation for injection. The format is physicochemical.
Method: (§1) Compounds as their sodium salts were prepared in a 1% sodium bicarbonate solution, H2O or phosphate buffered saline (PBS), with pH adjusted to 7.0 to 7.5 with HCl, and administered intravenously (IV) or orally (PO), at injection volumes of 0.2 mL per injection.
The test system of series [5] is Pancreatic Ductal Adenocarcinoma 03. The conditions noted are these: for Comments (Active/Inactive) / Comments (activity rating) / Drug Death / Log Cell Kill / Median Tumor Burden in mg on d17 / T-C / T/C % / Time to 1000 mg / Tumor Free on 148: BDF1 males.
From the text: (§2) Pancreatic ductal adenocarcinoma-03, mammary adenocarcinoma-16/C, mammary adenocarcinoma-17/Adr, and human melanoma LOX were used in the studies. Tumors were maintained in the mouse strain of origin (C57B1/6 for Panc-03 and C3H for the mammary tumors). Balb/c SCID mice (B and T cell deficient) were used for tumor maintenance and chemotherapy trials involving the human melanoma LOX. Tumors were transplanted into the appropriate F1 hybrid (B6D2F1=C57B 1/6 female× DBA/2 male) or the strain of origin for the chemotherapy trials. Individual mouse body weights for each experiment were within 5 grams, and all mice were over 17 grams at the start of therapy. The mice were supplied food and water ad libitum.
(§3) Animals were pooled, implanted subcutaneously with 30 to 60 mg tumor fragments by a 12 gauge trocar on day 0, and again pooled before unselective distribution to the various treatment and control groups. For early stage treatment, chemotherapy was started within 1 to 3 days after tumor implantation while the number of cells was relatively small (10^7 to 10^8 cells). For upstaged or advanced staged trials, the tumors were allowed to grow for five or more days before treatment was started. Tumors were measured with a caliper twice weekly. […] Tumor weights are estimated from two-dimensional measurements:
(§4) Tumor weight (in mg)=(a×b^2)/2, where a and b are the tumor length and width in (mm), respectively.
a) Tumor growth delay (T−C value), where T is the median time (in days) required for the treatment group tumors to reach a predetermined size (e.g., 1,000 mg), and C is the median time (in days) for the control group tumors to reach the same size. Tumor-free survivors were are excluded from these calculations (cures are tabulated separately). This value is an important criterion of anti-tumor effectiveness because it allows the quantification of tumor cell kill.
(§5) b) Calculation of tumor cell kill for subcutaneously (SC) growing tumors. […] The conversion of the T−C values to log10 cell kill is possible because the Td of tumors re-growing post treatment (Rx) approximates the Td values of the tumors in untreated control mice.
(§6) It should be noted that an activity rating of +++ to ++++ is needed to effect partial regression (PR) or complete regression (CR) of 100 to 300 mg size masses of most transplanted solid tumors of mice. Thus, an activity rating of + or ++ would not be scored as active by usual clinical criteria. A PR is a reduction in tumor mass to less than 50% of pretreatment size. A CR is a reduction in tumor mass to below palpable size (i.e., reduction to zero detectable mass).
(§7) The T/C value in percent is an indication of anti-tumor effectiveness: A T/C=0% means no tumor growth. A T/C=100% means no anti-tumor activity, i.e., the treated and control tumors grew equally. […] A T/C value<10% is considered to indicate highly significant anti-tumor activity, and is the level used by NCI to justify a clinical trial if toxicity, formulation, and certain other requirements are met (termed DN-2 level activity).
as §1
Thus, for this test, all compounds initially were to be given IP, in an attempt to identify a suitable alternate route of administration.
In series [6] the test system is Mammary Adenocarcinoma 16/C.
From the text: as §2, §3, §4
a) Tumor growth delay (T−C value), where T is the median time (in days) required for the treatment group tumors to reach a predetermined size (e.g., 1,000 mg), and C is the median time (in days) for the control group tumors to reach the same size. Tumor-free survivors were are excluded from these calculations (cures are tabulated separately).
as §5, §6, §7, §1
Series [7] has as its system Mammary Adenocarcinoma 16/C. The conditions noted are these: Cage 4, IV, qd 1–5, total 240 mg/kg. An excerpt:
Table 7. […] The animal was then re-implanted with Mam16/C/71.

Series [8] concerns Pancreatic Ductal Adenocarcinoma #03. The series can be described thus: Evaluation against early stage Pancreatic Ductal Adenocarcinoma #03, BD1 female mice (Table 2). The following applies: PO.
Where [9] appears, read: Cage 5, Qd3–7, total 157.5 mg/kg.
Setting [10] is: Cage 11, IP, 80 mg/kg/inj days 3, 5, 11, 13, 15, total 400 mg/kg.
[11] abbreviates: Cage 12, IP, 50 mg/kg/inj Q2d×7 from day 3, total 350 mg/kg.
Where [12] appears, read: IP, Q2d: 3–15, total dosage 350 mg/kg.
Where [13] appears, read: IP, d3, 5, 11, 13, 15, total dosage 400 mg/kg.
[14] abbreviates: Cage 2, IV, Q2Dx8, total 480 mg/kg.
Where [15] appears, read: Cage 3, BID3–7, total 2,300 mg/kg.
The mark [16] stands for this setting: Cage 4, BID 3, 4, total 480 mg/kg.
The mark [17] stands for this setting: Cage 2, BID3–5, total 450 mg/kg.
The mark [18] stands for this setting: Cage 3, BID3–7, total 450 mg/kg.
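For Comments (Active/Inactive) in this document: mice carrying bilateral subcutaneous tumors, with tumor weight estimated from two-dimensional caliper readings taken twice a week.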
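For Median Tumor Burden in mg on d17 in this document: mice carrying bilateral subcutaneous tumors, with tumor weight estimated from two-dimensional caliper readings taken twice a week.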
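For Tumor Free on 148 in this document: mice carrying bilateral subcutaneous tumors, with tumor weight estimated from two-dimensional caliper readings taken twice a week.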
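For tumor free on day 148 in this document: mice carrying bilateral subcutaneous tumors, with tumor weight estimated from two-dimensional caliper readings taken twice a week.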

Take `COc1cccc2c1C(=O)c1c(O)c3c(c(O)c1C2=O)C[C@@](O)(C(=O)CO)C[C@@H]3O[C@H]1C[C@H](N)[C@H](O)[C@H](C)O1` [Adriamycin, reference compound]: the “sensitivity of this tumor to standard agents (activity rating)” value (from here on “sensitivity of this tumor”) in series [1] is given as “It is nicely sensitive to Adriamycin (+++ activity). (2.0–2.8)”. Also, in series [2], the “% Body Wt Loss at Nadir” value was −1.4%, the “% T/C mass” value came to 90%, the “Activity Rating” value was “inactive” and the “Day of Nadir” value was 7 days. Moreover, in series [2], the “Drug Deaths” value is on record as 0/5, the “Growth Delay” value came to 0 days, the “Log Kill” value was “none” and the “Median Tumor Mass on Day 9 (Range)” value was determined as 1086. Besides, the “Tumor Free day-21” value in series [2] is on record as 0/5.

Consider `O=c1[nH]cc(F)c(=O)[nH]1` [Compound 5-FU, 5-FU], for which the “sensitivity of this tumor” value in series [1] is “It is modestly responsive to 5-FU (+ activity). (0.7–1.2)”.

One may read the T/C as the result in the treated group divided by that in the control group, in per cent. For `CC(Oc1ccc(Oc2ccc3ccc(Br)cc3n2)cc1)C(=O)O` [Compound 11c (R), 2-{4-{(7-bromo-2-quinolinyl)oxy}phenoxy}propionic acid, reference compound], in series [3] (Cage 4, Qd3–7, total 260 mg/kg), the “Comments (activity rating)” value is given as “LD20”; the “Day of Wt. Loss Nadir” value was determined as 10 days; the “Drug Death (day of death)” value was “One drug death and 1/5”; the “Log Cell Kill” value turned out to be 1.5. In series [3] (Cage 4, Qd3–7, total 260 mg/kg), the “Mean Body Wt. Loss in g/mouse” value is given as −3.2 g/mouse, the “Median Tumor Burden in mg on d14 (range)” value came to 126 mg, the “Percent Body Weight Loss” value was −16.7% and the “T-C” value is reported as 10.5 days. For the same compound, in series [3] (Cage 4, Qd3–7, total 260 mg/kg), the T/C % was 12.6%, the “Time to 1000 mg in days (range)” value was determined as 24.5 days, the “Tumor Free on d31” value is recorded as 0/5 and the “day of full body weight recovery” value is at most 17 days. Besides, in series [3] (setting [9]), the “Day of Wt. Loss Nadir” value was 9 days, the “Drug Death (day of death)” value is given as 0/5, the “Log Cell Kill” value stood at 1.58 and the “Mean Body Wt. Loss in g/mouse” value is listed as −0.0 g/mouse. In addition, in series [3] (setting [9]), the “Median Tumor Burden in mg on d14 (range)” value is 260 mg, the “T-C” value is listed as 11 days, the T/C % turned out to be 26% and the “Time to 1000 mg in days (range)” value is given as 25 days. Moreover, the “Tumor Free on d31” value in series [3] (setting [9]) was 0/5. In addition, in series [4] (white solid + 3% EtOH + 1% POE + 0.25% NaHCO3 + saline, pH = 9 → 7 with 1N HCl), the “Preparation: state of the injection preparation” value is “Compound 11c (R): white solid + 3% EtOH + 1% POE + 0.25% NaHCO3 + saline → solution (pH = 9 → 7 with 1N HCl); 0.5 ml/mouse/inj, IP”. Also, in series [5] (setting [10]), the Activity Rating entry was “++++ (Highly active >2.8)”; the T/C amounted to 0%; the log cell kill is given as 3.3; the “tumor free on day 148” value is 1/5 and One mouse remained tumor free. Besides, in series [5] (setting [11]), the Activity Rating entry was “++ (1.3–1.9)”, the T/C was found to be 3% and the log kill was 1.4. Further, in series [5] (setting [12]), the “Comments (Active/Inactive)” value is recorded as “Active”, the “Comments (activity rating)” value is “(++) (1.3–1.9)”, the “Drug Death” value is on record as 0/5 and the “Log Cell Kill” value is recorded as 1.4. Moreover, in series [5] (setting [12]), the “Median Tumor Burden in mg on d17” value was 63 mg, the “T-C” value came out at 10 days, the T/C % is given as 3% and the “Time to 1000 mg” value was 25 days. Besides, the “Tumor Free on 148” value in series [5] (setting [12]) is given as 0/5. In series [5] (setting [13]), the “Comments (Active/Inactive)” value is recorded as “Active”, the “Comments (activity rating)” value was “(++++) (Highly active >2.8)”, the “Drug Death” value was 0/5 and the “Log Cell Kill” value is 3.3. In addition, in series [5] (setting [13]), the “Median Tumor Burden in mg on d17” value is 0 mg, the “T-C” value was determined as 23 days, the T/C % is 0% and the “Time to 1000 mg” value is 38 days. Moreover, the “Tumor Free on 148” value in series [5] (setting [13]) is 1/5. In addition, in series [5] (mouse, in vivo), the “Day of Wt. Loss Nadir” value is 9 days and 8 days; the “day of full weight recovery” value was 16 days and 11 days; the “day of weight loss nadir” value is 9 days and 8 days. In series [6] (setting [14]), the “Drug Death (day of death)” value is 0/5, the “Log Cell Kill” value is reported as 4.8, the “Median Tumor Burden in mg on day 7 (range)” value was determined as 0 mg and the “T-C” value amounted to 16 days. Moreover, in series [6] (setting [14]), the T/C % came to 0%; the “Time to 1000 mg in days (range)” value amounted to 22 days; the “Tumor Free on d28” value is “no cures and 0/5”. Besides, in series [6] (mouse, in vivo), the “Day of Wt. Loss Nadir” value came out at 14 days and the “Percent Body Weight Loss” value was −4.3%. Besides, in series [7], the “Day of Wt. Loss Nadir” value was found to be 9 days; the “Drug Death (day of death)” value was “One animal died and 1/5”; the “Log Cell Kill” value amounted to 1.8; the “Mean Body Wt. Loss in g/mouse” value is −6.0 g/mouse. For the same compound, in series [7], the “Median Tumor Burden in mg on d 9 (range)” value is 0 mg, the “Percent Body Weight Loss” value is −29.4%, the “T-C” value is listed as 7.2 days and the T/C % was 0%. Moreover, in series [7], the “Time to 1,000 mg in days (range)” value is recorded as 15.2 days, the “Tumor Free on d 161” value is given as 0/5, the “day of body weight recovery” value was at most 13 days and the toxicity observations entry is “diarrhea”. The “body weight loss day 6” value in series [7] (day 6) is −17.5%.

With `CNC(=O)C(C)Oc1ccc(Oc2cnc3ccc(Cl)cc3n2)cc1` (stereo not drawn) [Compound 14b], in series [8] (setting [15]), the “Day of Wt. Loss Nadir” value came out at 8 days, the “Drug Deaths (day of death)” value was 0/5, the “Growth Delay” value stood at 7.0 days and the “Log Cell Kill” value is 0.8. In addition, in series [8] (setting [15]), the “Mean Body Wt. Loss (g/mouse)” value is recorded as −2.0 g/mouse, the “Median Tumor Burden in mg on d18 (Range)” value is reported as 671 mg, the T/C % stood at 39% and the “Time in days to 1000 mg (range)” value came out at 21 days. Also, in series [8] (setting [15]), the “Tumor Free on d 154” value is 0/5 and the “day of full body weight recovery” value is 10 days. In addition, in series [8] (setting [16]), the “% Body Wt. Loss” value is given as 4%, the “Day of Wt. Loss Nadir” value came out at 5 days, the “Drug Deaths (day of death)” value is recorded as 0/5 and the “Growth Delay” value was found to be 2.0 days. Moreover, in series [8] (setting [16]), the “Log Cell Kill” value is listed as 0.2, the “Mean Body Wt. Loss (g/mouse)” value is recorded as −0.8 g/mouse, the “Median Tumor Burden in mg on d18 (Range)” value is given as 1266 mg and the T/C % is given as 74%. Moreover, in series [8] (setting [16]), the “Time in days to 1000 mg (range)” value was 15 days and the “Tumor Free on d 154” value is given as 0/5. Further, in series [8] (Cage 5, BID 3, total 108 mg/kg), the “% Body Wt. Loss” value is recorded as 0%, the “Day of Wt. Loss Nadir” value was 5 days, the “Drug Deaths (day of death)” value is recorded as 0/5 and the “Growth Delay” value amounted to 2.7 days. In series [8] (Cage 5, BID 3, total 108 mg/kg), the “Log Cell Kill” value is recorded as 0.3, the “Mean Body Wt. Loss (g/mouse)” value was “+0.4 g/mouse”, the “Median Tumor Burden in mg on d18 (Range)” value is listed as 1312 mg and the T/C % turned out to be 77%. For the same compound, in series [8] (Cage 5, BID 3, total 108 mg/kg), the “Time in days to 1000 mg (range)” value amounted to 15.7 days and the “Tumor Free on d 154” value is 0/5. The water solubility result in series [4] is “water insoluble”.

`CC(Oc1ccc(Oc2ccc3ccc(Br)cc3n2)cc1)C(=O)NCCS(=O)(=O)[O-].[Na+]` [Compound 14g (R), Sodium (2-(4-(7-bromo-2-quinolinyl)oxy)phenoxy) propionylamino ethanesulfonate]: in series [3] (setting [17]), the “Day of Wt. Loss Nadir” value is 9 days; the “Drug Death (day of death)” value was “one drug death and 1/5”; the “Log Cell Kill” value is listed as 1.52; the “Mean Body Wt. Loss in g/mouse” value is reported as −4.4 g/mouse. In series [3] (setting [17]), the “Median Tumor Burden in mg on d14 (range)” value turned out to be 0 mg, the “T-C” value is 10.75 days, the T/C % came to 0% and the “Time to 1000 mg in days (range)” value came to 24.75 days. In series [3] (setting [17]), the “Tumor Free on d31” value is on record as 0/5; the “day of body weight recovery” value was at most 17 days; the toxicity observations entry was “increased urinary output and a sunken appearance”. In series [3] (setting [18]), the “Day of Wt. Loss Nadir” value was determined as 9 days, the “Drug Death (day of death)” value is 0/5, the “Log Cell Kill” value stood at 1.72 and the “Mean Body Wt. Loss in g/mouse” value is given as −1.2 g/mouse. Moreover, in series [3] (setting [18]), the “Median Tumor Burden in mg on d14 (range)” value is 126 mg, the “T-C” value is recorded as 12 days, the T/C % amounted to 12.6% and the “Time to 1000 mg in days (range)” value amounted to 26 days. Moreover, in series [3] (setting [18]), the “Tumor Free on d31” value was 0/5. The water solubility entry in series [4] is listed as “Low water solubility limits”. Besides, the solubility limit in series [4] (expressed as injectable dose) is 25 mg/kg (0.2 ml/inj).

On to `CC(=O)O[C@H]1C(=O)[C@@]2(C)[C@H]([C@H](OC(=O)c3ccccc3)[C@]3(O)C[C@H](OC(=O)[C@H](O)[C@@H](NC(=O)c4ccccc4)c4ccccc4)C(C)=C1C3(C)C)[C@]1(OC(C)=O)CO[C@@H]1C[C@@H]2O` [Taxol], for which the “sensitivity of this tumor” value in series [1] is recorded as “This tumor is highly sensitive to Taxol (++++ activity rating). (Highly active >2.8)”.

For `CC[C@]1(O)C[C@@H]2CN(CCc3c([nH]c4ccccc34)[C@@](C(=O)OC)(c3cc4c(cc3OC)N(C)[C@H]3[C@@](O)(C(=O)OC)[C@H](OC(C)=O)[C@]5(CC)C=CCN6CC[C@]43[C@@H]65)C2)C1` [Vinblastine], in series [1], the “sensitivity of this tumor” value was “It is insensitive to Vinblastine”.
